Data: article PMC8304516, “A Fungal Defensin Targets the SARS−CoV−2 Spike Receptor−Binding Domain” (Journal of Fungi, 2021)
Read-outs that look alike come from different tables or passages of the source. Bridge positions count the residues as written; N and C are the ends. Peptide text beside a SMILES is read from it.

Legend:
SARS−CoV−2 Spike RBD = SARS−CoV−2 Spike RBD (Severe acute respiratory syndrome coronavirus 2, UniProt P0DTC2); experiment: biochemical; type: binding
[1] = biological target: SARS-CoV-2 Spike receptor-binding domain (residues N334-P527) (SARS-CoV-2 (isolate Wuhan-Hu-1)) (UniProt P0DTC2); experiment: MST

CC[C@H](C)[C@@H]1NC(=O)[C@H](CO)NC(=O)[C@H](CC(C)C)NC(=O)[C@@H]2CSSC[C@@H](C(=O)NCC(=O)N[C@@H](CCCCN)C(=O)N[C@@H](CCC(N)=O)C(=O)O)NC(=O)[C@H]([C@@H](C)O)NC(=O)[C@@H]3CSSC[C@H](NC(=O)[C@H](CCC(=O)O)NC(=O)[C@H](CC(N)=O)NC(=O)[C@H](CCCNC(=N)N)NC(=O)[C@H](CC(N)=O)NC(=O)[C@H](Cc4ccccc4)NC(=O)[C@@H]4CCCN4C(=O)[C@@H](NC(=O)CNC(=O)[C@H](Cc4ccccc4)NC(=O)CN)CSSC[C@H](NC(=O)[C@H](Cc4ccccc4)NC(=O)CNC(=O)[C@H](Cc4ccccc4)NC(=O)[C@H](CCCCN)NC(=O)[C@H](CCCNC(=N)N)NC(=O)CNC1=O)C(=O)N[C@@H](C)C(=O)NCC(=O)N1CCC[C@H]1C(=O)N[C@@H](CC(C)C)C(=O)N[C@@H](CCCNC(=N)N)C(=O)N[C@@H](C)C(=O)N[C@@H]([C@@H](C)O)C(=O)N3)C(=O)N[C@@H](Cc1c[nH]cn1)C(=O)N[C@@H](C)C(=O)N[C@@H](Cc1c[nH]cn1)C(=O)N2 [E8R] (H-GFGCPFNRNECHAHCLSIGRKFGFCAGPLRATCTCGKQ-OH; disulfide 4-25, 11-33, 15-35)
Kd (SARS−CoV−2 Spike RBD; KD, SD): 0.72 ± 0.22 µM

CC[C@H](C)[C@@H]1NC(=O)[C@H](CO)NC(=O)[C@H](CC(C)C)NC(=O)[C@@H]2CSSC[C@@H](C(=O)NCC(=O)N[C@@H](CCCCN)C(=O)N[C@@H](CCC(N)=O)C(=O)O)NC(=O)[C@H]([C@@H](C)O)NC(=O)[C@@H]3CSSC[C@H](NC(=O)[C@H](CCC(=O)O)NC(=O)[C@H](CC(N)=O)NC(=O)[C@H](CCC(=O)O)NC(=O)[C@H](CC(N)=O)NC(=O)[C@H](Cc4ccccc4)NC(=O)[C@@H]4CCCN4C(=O)[C@@H](NC(=O)CNC(=O)[C@H](Cc4ccccc4)NC(=O)CN)CSSC[C@H](NC(=O)[C@H](Cc4ccccc4)NC(=O)CNC(=O)[C@H](Cc4ccccc4)NC(=O)[C@H](CCCCN)NC(=O)[C@H](CCCNC(=N)N)NC(=O)CNC1=O)C(=O)N[C@@H](C)C(=O)NCC(=O)N1CCC[C@H]1C(=O)N[C@@H](CC(C)C)C(=O)N[C@@H](CCCNC(=N)N)C(=O)N[C@@H](C)C(=O)N[C@@H]([C@@H](C)O)C(=O)N3)C(=O)N[C@@H](Cc1c[nH]cn1)C(=O)N[C@@H](C)C(=O)N[C@@H](Cc1c[nH]cn1)C(=O)N2 [micasin] (H-GFGCPFNENECHAHCLSIGRKFGFCAGPLRATCTCGKQ-OH; disulfide 4-25, 11-33, 15-35)
Kd (SARS−CoV−2 Spike RBD; KD, SD): 5.04 ± 0.96 µM

CC[C@H](C)[C@@H]1NC(=O)[C@H](CO)NC(=O)[C@H](CC(C)C)NC(=O)[C@@H]2CSSC[C@@H](C(=O)NCC(=O)N[C@@H](CCCCN)C(=O)N[C@@H](CCC(N)=O)C(=O)O)NC(=O)[C@H]([C@@H](C)O)NC(=O)[C@@H]3CSSC[C@H](NC(=O)[C@H](CCC(=O)O)NC(=O)[C@H](CC(N)=O)NC(=O)[C@H](CCCNC(=N)N)NC(=O)[C@H](CC(N)=O)NC(=O)[C@H](Cc4ccccc4)NC(=O)[C@@H]4CCCN4C(=O)[C@@H](NC(=O)CNC(=O)[C@H](Cc4ccccc4)NC(=O)CN)CSSC[C@H](NC(=O)[C@H](Cc4ccccc4)NC(=O)CNC(=O)[C@H](Cc4ccccc4)NC(=O)[C@H](CCCCN)NC(=O)[C@H](CCCNC(=N)N)NC(=O)CNC1=O)C(=O)N[C@@H](C)C(=O)NCC(=O)N1CCC[C@H]1C(=O)N[C@@H](CC(C)C)C(=O)N[C@@H](CCCNC(=N)N)C(=O)N[C@@H](C)C(=O)N[C@@H]([C@@H](C)O)C(=O)N3)C(=O)N[C@@H](Cc1c[nH]cn1)C(=O)N[C@@H](C)C(=O)N[C@@H](Cc1c[nH]cn1)C(=O)N2 [rE8R] (H-GFGCPFNRNECHAHCLSIGRKFGFCAGPLRATCTCGKQ-OH; disulfide 4-25, 11-33, 15-35)
Kd (SARS−CoV−2 Spike RBD; n = 2, read-out: KD): 1.92 µM

recombinant micasin E8K (peptide)
Kd [1]: 1.9 µM
